Reference: ChEMBL document CHEMBL4382222, “Structural development of non-secosteroidal vitamin D receptor (VDR) ligands without any asymmetric carbon” (Bioorg Med Chem, 2018)

Assays:
[1] = target: T1, Vitamin D3 receptor (Homo sapiens) (UniProt P11473); test: Agonist activity at human VDR expressed in HOS cells co-expressing human RXR at 0.00001 to 10 uM by Dual-Glo luciferase reporter gene assay relative to 1alpha,25(OH)2D3; assay type: cell-based
T1 sequence (whole entry): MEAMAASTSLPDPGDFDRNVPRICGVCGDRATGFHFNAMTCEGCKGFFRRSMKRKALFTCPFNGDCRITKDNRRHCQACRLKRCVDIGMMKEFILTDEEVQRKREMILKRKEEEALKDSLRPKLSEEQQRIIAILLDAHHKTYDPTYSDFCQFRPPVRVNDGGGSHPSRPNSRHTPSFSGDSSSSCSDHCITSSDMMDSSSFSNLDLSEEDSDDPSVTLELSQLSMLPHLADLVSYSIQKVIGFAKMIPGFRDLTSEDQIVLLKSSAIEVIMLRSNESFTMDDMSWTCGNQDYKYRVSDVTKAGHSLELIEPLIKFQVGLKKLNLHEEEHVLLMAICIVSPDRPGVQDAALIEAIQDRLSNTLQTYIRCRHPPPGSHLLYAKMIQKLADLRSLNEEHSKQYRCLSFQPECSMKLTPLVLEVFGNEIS

[2] = target: T2, Vitamin D3 receptor (Homo sapiens, UniProt P11473); test: Agonist activity at human VDR expressed in HOS cells co-expressing human RXR by Dual-Glo luciferase reporter gene assay; assay type: cell-based
T2 sequence (P11473 whole entry): T1 sequence (whole entry)

SMILES | Emax [1] | EC50 [2]
CCC(CC)(c1ccc(OCCC(C)(C)O)c(C)c1)c1ccc(OCC(CO)CO)c(C)c1 | 91% | 76.9 nM
CCC(CC)(c1ccc(OCCC(C)(C)O)c(C)c1)c1ccc(OC[C@@H](O)CO)c(C)c1 | 100% | 41.7 nM
CCC(O)(CC)COc1ccc(C(CC)(CC)c2ccc(OC[C@@H](O)CO)c(C)c2)cc1C | 90% | 18 nM
CCC(CC)(c1ccc(OC[C@@H](O)CO)c(C)c1)c1ccc(OCC(C)(C)O)c(C)c1 | 67% | 163 nM

The remaining compounds from weak to strong by EC50 [2], led by results:

Emax [1] | EC50 [2] | SMILES
91% | 76.5 nM | CCC(CC)(c1ccc(OCC(CO)CO)c(C)c1)c1ccc(OCC(C)(C)O)c(C)c1
100% | 17.2 nM | CCC(O)(CC)COc1ccc(C(CC)(CC)c2ccc(OC(CO)CO)c(C)c2)cc1C
100% | 9.26 nM | CCC(O)(CC)COc1ccc(C(CC)(CC)c2ccc(OCC(CO)CO)c(C)c2)cc1C
